These results are taken from patent US12076304B2, “Compositions comprising 15-HEPE and methods of treating or preventing hematologic disorders, and/or related diseases” (priority 2020, dated 2024).

Entries after “also recorded” stand apart in the source; their conditions may differ.

Common to all, as to format: in vivo
For assay [1], the system named is cholestasis induced by BDL. As to the kind of experiment: BDL mice: serum biochemistry (ALT, total bilirubin). The following applies: for Serum ALT / Serum Total Bilirubin: n = 8. The procedure: Sample Collection: For serum samples, non-fasting blood was collected in serum separate tubes without anticoagulant through direct cardiac puncture and centrifuged at 3,500×g for 4 minutes at 4° C. The supernatant was collected and stored at −80° C. for biochemistry (30 μL) and shipping (all the remaining). For liver samples, left lateral lobe was collected and cut into 6 pieces. Two pieces of left lateral lobe were fixed in Bouin's solution and then embedded in paraffin. Samples were stored at room temperature for histological analysis. The other 2 pieces of left lateral lobe were embedded in O.C.T. compound and quick frozen in liquid nitrogen. Samples were stored at −80° C. The remaining pieces of left lateral lobe was snap frozen in liquid nitrogen and stored at −80° C. for gene expression analyses. Right medial lobe, left medial lobe, right lobe and caudate lobe were snap frozen in liquid nitrogen and stored at −80° C. for shipping.

For a further assay, the system named is Collagen Type 1 mRNA. Nature of the assay: BDL mice liver quantitative RT-PCR, Collagen Type 1. The conditions noted are these: for Collagen Type 1 relative mRNA expression level: BDL mice liver, normalized to 36B4, Sham 1.00, mean ± SD. As for the experimental part: (§1) Quantitative RT-PCR: Total ribonucleic acid (RNA) was extracted from liver samples using RNAiso (Takara Bio, Japan) according to the manufacturer's instructions. One μg of RNA was reverse-transcribed using a reaction mixture containing 4.4 mM magnesium chloride (MgCl2) (F. Hoffmann-La Roche, Switzerland), 40 U RNase inhibitor (Toyobo, Japan), 0.5 mM dNTP (Promega, USA), 6.28 μM random hexamer (Promega), 5× first strand buffer (Promega), 10 mM dithiothreitol (Invitrogen, USA) and 200 U MMLV-RT (Invitrogen) in a final volume of 20 μL. The reaction was carried out for 1 hour at 37° C., followed by 5 minutes at 99° C. Real-time PCR was performed using real-time PCR DICE and TB Green™ Premix Ex Taq™ II (Takara Bio). To calculate the relative mRNA expression level, the expression of each gene (α-SMA, TIMP-1, TGF-β and Collagen Type 1) was normalized to that of reference gene 36B4 (gene symbol: Rplp0). Information regarding the PCR-primer sets and the plate layout are described in Tables 8 and 9.

The test system of a further assay is TGF-β mRNA. As to the kind of experiment: BDL mice liver quantitative RT-PCR, TGF-β. The following applies: for TGF-β relative mRNA expression level: BDL mice liver, normalized to 36B4, Sham 1.00, mean ± SD. The procedure:
as §1

[2] abbreviates: 50 mg/kg PO QD Day 0-13, Day 14, mean ± SD.
Setting [3] is: 250 mg/kg PO QD Day 0-13, Day 14, mean ± SD.
The mark [4] stands for this setting: 500 mg/kg PO QD Day 0-13, Day 14, mean ± SD.
The mark [5] stands for this setting: BDL mice, DS102 treatment groups as a whole.

Turning to 15-HEPE [DS102], the “Serum ALT” value was 402 ± 112 U/L in assay [1] (setting [2]), 351 ± 155 U/L in assay [1] (setting [3]) and 383 ± 147 U/L in assay [1] (setting [4]). The “Serum Total Bilirubin” value worked out at 26.8 ± 6.9 mg/dL in assay [1] (setting [2]), 23.5 ± 9.8 mg/dL in assay [1] (setting [3]) and 26.2 ± 6.1 mg/dL in assay [1] (setting [4]). Further, the “serum ALT level vs Vehicle group” value in assay [1] (50, 250 and 500 mg/kg PO QD) was “no significant differences”. In addition, the “serum total bilirubin level vs Vehicle group” value in assay [1] (50, 250 and 500 mg/kg PO QD) is listed as “no significant differences”. Further, the “Collagen Type 1 relative mRNA expression level” value is given as 4.94 ± 2.76 in the assay on Collagen Type 1 mRNA (50 mg/kg PO QD Day 0-13), 4.21 ± 1.90 in the assay on Collagen Type 1 mRNA (250 mg/kg PO QD Day 0-13) and 2.51 ± 1.39 with Collagen Type 1 mRNA (500 mg/kg PO QD Day 0-13). Further, the “Collagen Type 1 mRNA expression level compared with the Vehicle group” value in the assay with Collagen Type 1 mRNA (BDL mice, 500 mg/kg PO QD Day 0-13, 500 mg/kg) was “tended to decrease; also recorded: trend approaching significance”. Also, the “Collagen Type 1 mRNA expression level, Vehicle group vs the DS102 treatment groups” value in the assay with Collagen Type 1 mRNA (setting [5]) is “no significant differences”. Besides, the “TGF-β relative mRNA expression level” value in the assay with TGF-β mRNA (50 mg/kg PO QD Day 0-13) came to 1.48 ± 0.48; in the assay with TGF-β mRNA (250 mg/kg PO QD Day 0-13), 1.50 ± 0.44; in the assay with TGF-β mRNA (500 mg/kg PO QD Day 0-13), 1.00 ± 0.23. In addition, in the assay with TGF-β mRNA (BDL mice, 500 mg/kg PO QD Day 0-13), the “TGF-β mRNA expression level compared with the Vehicle group” value is on record as “significant decrease”. For the same substance, in the assay with TGF-β mRNA (setting [5]), the “TGF-β mRNA expression level, Vehicle group vs the DS102 treatment groups” value was “no significant differences”.
